The text below walks through data of ChEMBL document CHEMBL5465560, “Selectivity Literature for EUbOPEN Chemogenomic Library” (2024).

The structures appear in SMILES notation.

Test [1] has as its target Mitogen-activated protein kinase 10 (Homo sapiens, UniProt P53779). The experiment in a line: Selectivity interaction (KinomeScan (DiscoverX)) EUB0000092b MAPK10. Particulars: at 10 µM.
Test [2] addresses Tyrosine-protein kinase HCK (Homo sapiens) (UniProt P08631). The experiment in a line: Selectivity interaction (KinomeScan (DiscoverX)) EUB0000655a HCK. The conditions noted are these: at 10 µM.
The target in test [3] is Calcium/calmodulin-dependent protein kinase type II subunit gamma (Homo sapiens) (UniProt Q13555). In words: Selectivity interaction (KinomeScan (DiscoverX)) EUB0000655a CAMK2G. Particulars: at 10 µM.
Calcium/calmodulin-dependent protein kinase type II subunit gamma (Homo sapiens), sequence (Q13555 whole entry): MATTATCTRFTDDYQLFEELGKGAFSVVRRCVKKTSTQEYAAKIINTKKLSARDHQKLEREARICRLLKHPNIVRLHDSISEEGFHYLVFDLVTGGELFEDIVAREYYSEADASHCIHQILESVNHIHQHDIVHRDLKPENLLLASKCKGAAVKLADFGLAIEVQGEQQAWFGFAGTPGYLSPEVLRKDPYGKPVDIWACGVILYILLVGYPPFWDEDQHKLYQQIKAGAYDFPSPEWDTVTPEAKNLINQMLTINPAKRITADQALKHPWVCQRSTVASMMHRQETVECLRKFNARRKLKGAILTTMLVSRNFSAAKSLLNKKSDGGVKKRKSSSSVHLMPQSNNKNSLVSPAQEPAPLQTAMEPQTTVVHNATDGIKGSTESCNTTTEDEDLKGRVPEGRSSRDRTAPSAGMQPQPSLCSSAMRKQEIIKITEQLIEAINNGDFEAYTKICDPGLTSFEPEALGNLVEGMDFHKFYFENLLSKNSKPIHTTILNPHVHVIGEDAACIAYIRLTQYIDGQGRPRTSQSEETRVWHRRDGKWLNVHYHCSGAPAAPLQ
Test [4] concerns the target Serine/threonine-protein kinase mTOR (Homo sapiens, UniProt P42345). The experiment in a line: Selectivity interaction (KinomeScan (DiscoverX)) EUB0000695a MTOR. Particulars: at 100 nM.
The target in test [5] is T1, TGF-beta receptor type-1 (Homo sapiens) (UniProt P36897).
T1 sequence (whole entry): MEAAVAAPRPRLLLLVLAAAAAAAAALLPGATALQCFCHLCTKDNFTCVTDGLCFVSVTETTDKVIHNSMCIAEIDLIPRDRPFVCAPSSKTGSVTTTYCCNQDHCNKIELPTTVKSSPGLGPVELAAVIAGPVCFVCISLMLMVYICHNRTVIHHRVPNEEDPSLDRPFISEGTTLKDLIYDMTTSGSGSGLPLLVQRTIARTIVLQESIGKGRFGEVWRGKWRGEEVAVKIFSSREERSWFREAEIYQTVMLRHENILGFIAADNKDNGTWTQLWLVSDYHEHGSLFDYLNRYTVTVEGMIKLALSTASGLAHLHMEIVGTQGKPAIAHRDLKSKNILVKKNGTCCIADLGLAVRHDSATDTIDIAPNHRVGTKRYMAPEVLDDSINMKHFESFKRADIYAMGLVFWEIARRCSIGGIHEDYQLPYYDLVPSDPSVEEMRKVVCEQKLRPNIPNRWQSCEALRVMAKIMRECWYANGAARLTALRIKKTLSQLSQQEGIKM
The experiment in a line: Selectivity interaction (KinomeScan (DiscoverX)) EUB0000045b TGFBR1.

Test [6] deals with Tyrosine-protein kinase ABL1 (Homo sapiens), P00519 [H396P]. The experiment in a line: Selectivity interaction (KinomeScan (DiscoverX)) EUB0000045b ABL1. The conditions noted are these: at 10 µM.
For test [7], the target named is Tyrosine-protein kinase CSK (Homo sapiens) (UniProt P41240). The experiment in a line: Selectivity interaction (KinomeScan (DiscoverX)) EUB0000607a CSK. The conditions noted are these: at 10 µM.
Tyrosine-protein kinase CSK (Homo sapiens), sequence (P41240 2-450 limits assumed): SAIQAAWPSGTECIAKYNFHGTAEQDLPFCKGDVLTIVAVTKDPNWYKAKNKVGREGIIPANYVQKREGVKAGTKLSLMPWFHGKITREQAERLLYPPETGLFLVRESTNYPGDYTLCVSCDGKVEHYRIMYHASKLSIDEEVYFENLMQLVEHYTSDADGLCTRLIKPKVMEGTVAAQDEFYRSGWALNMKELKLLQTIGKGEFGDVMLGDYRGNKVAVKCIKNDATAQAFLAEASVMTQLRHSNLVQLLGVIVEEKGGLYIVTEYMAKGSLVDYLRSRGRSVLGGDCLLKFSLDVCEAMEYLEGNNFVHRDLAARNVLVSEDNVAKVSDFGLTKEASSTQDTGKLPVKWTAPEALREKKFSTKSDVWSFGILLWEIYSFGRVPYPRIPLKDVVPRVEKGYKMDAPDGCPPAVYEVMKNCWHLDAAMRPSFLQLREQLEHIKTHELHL
Test [8] concerns the target Casein kinase I isoform delta (Homo sapiens, UniProt P48730). The experiment in a line: Selectivity interaction (SelectScreen profiling (Invitrogen)) EUB0000607a CSNK1D. Particulars: at 2 µM.
The target of a further test is Focal adhesion kinase 1 (Homo sapiens, UniProt Q05397). The experiment in a line: Selectivity interaction (ActivX KiNativ screen (kinase selectivity in THP-1 cell lysates)) EUB0000639a PTK2. It counts as subcellular. The conditions noted are these: lysate.
Focal adhesion kinase 1, sequence (Q05397 2-1052 limits assumed): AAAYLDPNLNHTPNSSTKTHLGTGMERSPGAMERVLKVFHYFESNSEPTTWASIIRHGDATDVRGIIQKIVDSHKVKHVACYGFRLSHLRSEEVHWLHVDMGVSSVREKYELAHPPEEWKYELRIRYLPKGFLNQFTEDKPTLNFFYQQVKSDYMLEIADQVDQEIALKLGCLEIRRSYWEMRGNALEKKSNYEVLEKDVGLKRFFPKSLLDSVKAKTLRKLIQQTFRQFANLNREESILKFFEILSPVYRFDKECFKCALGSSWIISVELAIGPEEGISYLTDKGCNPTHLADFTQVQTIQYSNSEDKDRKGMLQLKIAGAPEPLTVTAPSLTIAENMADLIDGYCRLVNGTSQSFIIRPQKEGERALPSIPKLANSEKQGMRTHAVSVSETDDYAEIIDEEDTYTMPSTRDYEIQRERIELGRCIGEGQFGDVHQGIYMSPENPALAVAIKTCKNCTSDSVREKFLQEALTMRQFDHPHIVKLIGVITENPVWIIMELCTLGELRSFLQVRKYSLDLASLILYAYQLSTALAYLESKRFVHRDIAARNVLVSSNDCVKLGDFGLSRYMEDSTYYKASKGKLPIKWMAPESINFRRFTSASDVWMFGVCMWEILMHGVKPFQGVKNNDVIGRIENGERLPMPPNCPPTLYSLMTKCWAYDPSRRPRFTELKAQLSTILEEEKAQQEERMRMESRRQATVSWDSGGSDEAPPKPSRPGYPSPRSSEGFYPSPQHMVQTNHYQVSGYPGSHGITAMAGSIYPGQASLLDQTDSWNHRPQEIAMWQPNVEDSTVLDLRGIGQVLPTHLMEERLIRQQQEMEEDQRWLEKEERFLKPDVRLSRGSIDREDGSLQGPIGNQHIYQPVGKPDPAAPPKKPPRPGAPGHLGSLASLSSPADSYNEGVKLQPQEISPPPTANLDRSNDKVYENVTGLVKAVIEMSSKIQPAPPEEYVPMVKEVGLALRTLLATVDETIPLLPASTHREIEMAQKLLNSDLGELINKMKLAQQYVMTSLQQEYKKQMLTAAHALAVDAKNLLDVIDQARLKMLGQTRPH
The target in test [9] is T2, Dual serine/threonine and tyrosine protein kinase (Homo sapiens) (UniProt Q6XUX3).
T2 sequence (whole entry): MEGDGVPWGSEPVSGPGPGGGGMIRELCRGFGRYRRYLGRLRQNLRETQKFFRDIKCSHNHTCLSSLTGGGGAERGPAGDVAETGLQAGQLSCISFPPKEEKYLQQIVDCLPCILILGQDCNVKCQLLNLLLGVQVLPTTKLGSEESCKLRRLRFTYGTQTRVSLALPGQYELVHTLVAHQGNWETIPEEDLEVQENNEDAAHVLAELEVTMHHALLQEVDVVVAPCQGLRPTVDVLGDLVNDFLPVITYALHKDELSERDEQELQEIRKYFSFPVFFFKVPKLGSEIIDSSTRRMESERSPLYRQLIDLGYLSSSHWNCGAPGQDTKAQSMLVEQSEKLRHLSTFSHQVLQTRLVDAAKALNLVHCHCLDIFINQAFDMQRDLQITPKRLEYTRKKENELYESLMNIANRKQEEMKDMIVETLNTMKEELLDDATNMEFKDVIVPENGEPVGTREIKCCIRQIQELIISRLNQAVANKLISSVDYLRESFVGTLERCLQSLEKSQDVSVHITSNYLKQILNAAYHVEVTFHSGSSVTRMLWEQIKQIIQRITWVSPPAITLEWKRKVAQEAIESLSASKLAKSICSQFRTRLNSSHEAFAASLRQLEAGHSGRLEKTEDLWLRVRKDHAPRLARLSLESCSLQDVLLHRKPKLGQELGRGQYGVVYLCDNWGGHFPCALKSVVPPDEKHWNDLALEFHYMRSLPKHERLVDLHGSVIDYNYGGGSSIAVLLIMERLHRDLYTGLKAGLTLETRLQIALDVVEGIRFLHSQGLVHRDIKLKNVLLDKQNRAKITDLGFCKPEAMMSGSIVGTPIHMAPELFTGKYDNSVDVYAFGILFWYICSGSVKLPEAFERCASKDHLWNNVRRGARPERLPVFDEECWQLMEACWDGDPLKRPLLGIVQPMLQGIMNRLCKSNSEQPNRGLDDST
In words: Selectivity interaction (KinomeScan (DiscoverX)) EUB0000229b DSTYK. The conditions noted are these: at 10 µM.

The target in test [10] is Muscarinic acetylcholine receptor M3 (Homo sapiens, UniProt P20309). In words: Selectivity interaction (GPCR panel (PDSP screen)) EUB0000311b CHRM3. Particulars: at 10 µM.
Muscarinic acetylcholine receptor M3, sequence (P20309 whole entry, looked up): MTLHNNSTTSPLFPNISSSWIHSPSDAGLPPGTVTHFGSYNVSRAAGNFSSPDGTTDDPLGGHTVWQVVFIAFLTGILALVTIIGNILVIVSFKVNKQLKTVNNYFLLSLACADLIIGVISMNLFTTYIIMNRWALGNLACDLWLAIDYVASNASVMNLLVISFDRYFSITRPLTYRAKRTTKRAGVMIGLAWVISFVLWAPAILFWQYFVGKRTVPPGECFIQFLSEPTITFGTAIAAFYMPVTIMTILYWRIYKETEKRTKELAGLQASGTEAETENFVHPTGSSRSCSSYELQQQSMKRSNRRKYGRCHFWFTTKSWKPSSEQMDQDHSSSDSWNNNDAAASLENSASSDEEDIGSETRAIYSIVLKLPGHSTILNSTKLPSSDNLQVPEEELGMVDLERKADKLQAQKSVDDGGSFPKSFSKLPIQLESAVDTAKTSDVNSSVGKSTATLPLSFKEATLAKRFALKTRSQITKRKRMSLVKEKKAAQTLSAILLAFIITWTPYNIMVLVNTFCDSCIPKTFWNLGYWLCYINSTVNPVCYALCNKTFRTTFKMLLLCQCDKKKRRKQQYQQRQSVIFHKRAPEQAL
Test [11] has as its target Tyrosine-protein kinase JAK2 (Homo sapiens, UniProt O60674). In words: Selectivity interaction (KinomeScan (DiscoverX)) EUB0000618a JAK2. Particulars: at 10 µM.

Tyrosine-protein kinase JAK2, sequence (O60674 whole entry): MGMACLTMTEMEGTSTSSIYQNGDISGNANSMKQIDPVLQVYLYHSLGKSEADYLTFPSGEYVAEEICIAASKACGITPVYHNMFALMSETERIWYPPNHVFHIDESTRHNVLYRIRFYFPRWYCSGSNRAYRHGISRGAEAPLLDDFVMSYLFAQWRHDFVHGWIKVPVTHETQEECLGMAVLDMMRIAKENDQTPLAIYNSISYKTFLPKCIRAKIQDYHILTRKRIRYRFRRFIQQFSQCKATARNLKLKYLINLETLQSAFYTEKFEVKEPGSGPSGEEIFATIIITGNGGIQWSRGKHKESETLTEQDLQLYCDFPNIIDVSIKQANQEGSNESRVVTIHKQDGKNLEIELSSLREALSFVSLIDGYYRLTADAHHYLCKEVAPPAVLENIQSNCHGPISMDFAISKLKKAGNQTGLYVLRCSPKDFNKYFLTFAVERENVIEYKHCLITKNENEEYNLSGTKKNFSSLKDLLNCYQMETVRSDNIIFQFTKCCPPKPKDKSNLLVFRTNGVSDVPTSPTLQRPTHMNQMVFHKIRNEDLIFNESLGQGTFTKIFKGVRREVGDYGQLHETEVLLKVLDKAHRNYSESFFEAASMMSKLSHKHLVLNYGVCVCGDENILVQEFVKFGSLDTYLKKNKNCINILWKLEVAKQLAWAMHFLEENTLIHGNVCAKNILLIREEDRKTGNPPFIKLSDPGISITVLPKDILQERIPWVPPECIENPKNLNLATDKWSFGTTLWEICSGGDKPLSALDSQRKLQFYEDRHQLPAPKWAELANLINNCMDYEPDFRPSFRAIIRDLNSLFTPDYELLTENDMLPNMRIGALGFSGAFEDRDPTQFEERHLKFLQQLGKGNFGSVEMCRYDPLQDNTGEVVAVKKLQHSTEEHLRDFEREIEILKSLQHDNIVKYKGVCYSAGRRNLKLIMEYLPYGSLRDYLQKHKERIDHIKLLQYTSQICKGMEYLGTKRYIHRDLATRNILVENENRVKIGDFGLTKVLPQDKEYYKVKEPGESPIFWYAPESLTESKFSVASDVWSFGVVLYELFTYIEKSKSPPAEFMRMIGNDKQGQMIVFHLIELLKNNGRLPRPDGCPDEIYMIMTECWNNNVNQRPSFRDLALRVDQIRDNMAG
Mitogen-activated protein kinase 10, sequence (P53779 whole entry): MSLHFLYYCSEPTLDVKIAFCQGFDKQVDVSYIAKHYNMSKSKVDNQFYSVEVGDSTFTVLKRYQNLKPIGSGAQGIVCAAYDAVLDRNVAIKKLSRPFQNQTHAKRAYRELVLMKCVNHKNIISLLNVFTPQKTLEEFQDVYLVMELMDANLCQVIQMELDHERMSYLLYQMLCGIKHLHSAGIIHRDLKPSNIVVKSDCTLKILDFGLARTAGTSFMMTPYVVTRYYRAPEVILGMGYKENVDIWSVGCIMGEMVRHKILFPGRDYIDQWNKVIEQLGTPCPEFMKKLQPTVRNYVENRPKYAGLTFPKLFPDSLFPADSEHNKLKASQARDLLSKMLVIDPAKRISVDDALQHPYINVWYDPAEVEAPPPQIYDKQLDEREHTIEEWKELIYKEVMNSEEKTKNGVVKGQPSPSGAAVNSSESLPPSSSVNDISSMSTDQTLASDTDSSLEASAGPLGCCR
Casein kinase I isoform delta, sequence (P48730 whole entry, looked up, canonical isoform): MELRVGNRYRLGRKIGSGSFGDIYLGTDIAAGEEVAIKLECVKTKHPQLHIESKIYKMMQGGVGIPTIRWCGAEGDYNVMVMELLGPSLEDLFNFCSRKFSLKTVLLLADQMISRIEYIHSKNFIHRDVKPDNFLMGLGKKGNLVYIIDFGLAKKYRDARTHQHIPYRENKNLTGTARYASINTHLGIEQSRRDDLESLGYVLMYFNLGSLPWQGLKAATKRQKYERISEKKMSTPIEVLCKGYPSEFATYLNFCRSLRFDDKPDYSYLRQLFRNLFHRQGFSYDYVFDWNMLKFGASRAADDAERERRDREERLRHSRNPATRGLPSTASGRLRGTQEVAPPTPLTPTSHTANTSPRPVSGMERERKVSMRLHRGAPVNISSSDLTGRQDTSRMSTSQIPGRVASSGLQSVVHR

In test [1], `CCC(=O)N1CCN(c2ccc(-n3c(=O)ccc4cnc5ccc(-c6cnc7ccccc7c6)cc5c43)cc2C(F)(F)F)CC1` yielded a % of control of 31%. In the case of `CN(C)CCOc1ccc(-c2nc(-c3ccncc3)c(-c3ccc4c(c3)CC/C4=N\O)[nH]2)cc1`, the % of control in test [2] stood at 84%; in test [3], 94%.

In the case of `Cc1cc(F)c(C(=O)Nc2cccc(-c3nncn3C(C)C)n2)cc1-n1cnc(C2CC2)c1`, in [4], the % of control is 100%. As for `C=CC(=O)Nc1cc(-n2c(=O)ccc3cnc4ccc(-c5ccc(NS(C)(=O)=O)cc5)cc4c32)ccc1C`, the % of control in test [5] (at 1 µM) is 97%; in test [5] (at 10 µM), 100%; in [6], 44%. For `CNC(=O)Nc1ccc(-c2nc(N3CC4CCC(C3)O4)c3cnn(C4CCC5(CC4)OCCO5)c3n2)cc1`, the % of control in test [7] amounted to 100%. Further, the % of inhibition in [8] was found to be 2%. As for `CC[C@@H]1[C@H](F)C(=O)N[C@@H]1COc1nccc2cc(C(N)=O)c(OC)cc12` [ZIMLOVISERTIB], the % of inhibition was 25.4% on Focal adhesion kinase 1 (at 0.01 µM); -3.4% on Focal adhesion kinase 1 (at 0.04 µM); -1.1% at Focal adhesion kinase 1 (at 0.2 µM); -16.1% at Focal adhesion kinase 1 (at 1 µM); 15.5% at Focal adhesion kinase 1 (at 5 µM). In turn, `COc1cc(N(C)c2ccnc3ccc(C(F)(F)F)cc23)cc(OC)c1OC` came in with a % binding in [9] of 82%. Regarding `CCc1ccccc1C(=O)Nc1n[nH]c2c(C)c(F)c(C3C(C#N)=C(C)N(C)C(C)=C3C#N)cc12` [BAY-3827], in [10], the % of inhibition was found to be 22.5%. `O[C@H]1CC[C@H](Nc2ncc3nc(Nc4c(F)cc(F)cc4F)n([C@H]4CCOC4)c3n2)CC1` displayed a % of control in [11] of 97%.
